Test results taken from ChEMBL document CHEMBL1201862, “PubChem BioAssay data set” (2004).
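Results reflect a 48-hour exposure of cells in 96-well plates to compound at five concentrations. The concentration for 50% growth inhibition is given as GI50.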 Calls of active or inactive are those of the source. Rule as the data show it: active = GI50 up to about 1.1 µM and inactive = higher.

Tests used:
Assay in all cases: inhibition of tumour cell growth, NCI panel, 48 h
[1] = system: SF-268
[2] = system: CCRF-CEM
[3] = system: MOLT-4
[4] = system: EKVX
[5] = system: K562
[6] = system: HOP-92
[7] = system: HL-60
[8] = system: OVCAR-4
[9] = system: NCI-H23
[10] = system: LXFL 529
[11] = system: DLD-1
[12] = system: SN12C
[13] = system: KM12
[14] = system: HCT-116
[15] = system: SK-MEL-2
[16] = system: LOX IMVI
[17] = system: CAKI-1
[18] = system: DMS-114
[19] = system: XF498
[20] = system: SK-MEL-28
[21] = system: SK-MEL-5
[22] = system: SW-620
[23] = system: U-251
[24] = system: COLO 205
[25] = system: HCC 2998
[26] = system: SNB-75
[27] = system: SR
[28] = system: UACC-257
[29] = system: SNB-78
[30] = system: NCI-H522
[31] = system: NCI-H226
[32] = system: A498
[33] = system: SF-295
[34] = system: HCT-15
[35] = system: A549
[36] = system: UO-31
[37] = system: OVCAR-5
[38] = system: DMS-273
[39] = system: HOP-62
[40] = system: SK-OV-3
[41] = system: OVCAR-8
[42] = system: ACHN
[43] = system: TK-10
[44] = system: IGROV-1
[45] = system: HOP-18
[46] = system: UACC-62
[47] = system: RXF 393
[48] = system: 786-0
[49] = system: SF-539
[50] = system: NCI-H460
[51] = system: M14
[52] = system: KM-20L2
[53] = system: Malme-3M
[54] = system: OVCAR-3
[55] = system: SNB-19
[56] = system: M19-MEL
[57] = system: RPMI-8226
[58] = system: HT-29

COc1ccc(Nc2nc3ccccc3nc2-c2cccs2)cc1
GI50 [1]: > 100 µM (inactive)
GI50 [2]: > 100 µM (inactive)
GI50 [3]: > 100 µM (inactive)
GI50 [4]: > 100 µM (inactive)
GI50 [5]: > 100 µM (inactive)
GI50 [6]: 51.5 µM (inactive)
GI50 [7]: 17.5 µM (inactive)
GI50 [8]: > 100 µM (inactive)
GI50 [9]: > 100 µM (inactive)
GI50 [10]: 54.5 µM (inactive)
GI50 [11]: > 100 µM (inactive)
GI50 [12]: > 100 µM (inactive)
GI50 [13]: > 100 µM (inactive)
GI50 [14]: > 100 µM (inactive)
GI50 [15]: > 100 µM (inactive)
GI50 [16]: > 100 µM (inactive)
GI50 [17]: > 100 µM (inactive)
GI50 [18]: 92.9 µM (inactive)
GI50 [19]: 78.2 µM (inactive)
GI50 [20]: > 100 µM (inactive)
GI50 [21]: 65.3 µM (inactive)
GI50 [22]: > 100 µM (inactive)
GI50 [23]: > 100 µM (inactive)
GI50 [24]: > 100 µM (inactive)
GI50 [25]: 75 µM (inactive)
GI50 [26]: 28.6 µM (inactive)
GI50 [27]: 55 µM (inactive)
GI50 [28]: > 100 µM (inactive)
GI50 [29]: 39.5 µM (inactive)
GI50 [30]: 59.4 µM (inactive)
GI50 [31]: > 100 µM (inactive)
GI50 [32]: 42.6 µM (inactive)
GI50 [33]: 70.6 µM (inactive)
GI50 [34]: > 100 µM
GI50 [35]: 80.4 µM (inactive)
GI50 [36]: > 100 µM (inactive)
GI50 [37]: > 100 µM (inactive)
GI50 [38]: > 100 µM (inactive)
GI50 [39]: 69.7 µM (inactive)
GI50 [40]: 40.5 µM (inactive)
GI50 [41]: > 100 µM (inactive)
GI50 [42]: > 100 µM (inactive)
GI50 [43]: > 100 µM (inactive)
GI50 [44]: > 100 µM (inactive)
GI50 [45]: > 100 µM (inactive)
GI50 [46]: > 100 µM (inactive)
GI50 [47]: > 100 µM (inactive)
GI50 [48]: 75 µM (inactive)
GI50 [49]: > 100 µM (inactive)
GI50 [50]: 79.4 µM (inactive)
GI50 [51]: 47.1 µM (inactive)
GI50 [52]: 60 µM (inactive)
GI50 [53]: > 100 µM (inactive)
GI50 [54]: > 100 µM (inactive)
GI50 [55]: > 100 µM (inactive)

O=C1O[C@H](C(Cl)(Cl)Cl)N2CCCC12 (stereo partly drawn)
GI50 [1]: > 100 µM (inactive)
GI50 [56]: > 100 µM (inactive)
GI50 [2]: > 100 µM (inactive)
GI50 [3]: > 100 µM (inactive)
GI50 [4]: > 100 µM (inactive)
GI50 [5]: > 100 µM (inactive)
GI50 [6]: > 100 µM (inactive)
GI50 [7]: > 100 µM (inactive)
GI50 [8]: > 100 µM (inactive)
GI50 [9]: > 100 µM (inactive)
GI50 [10]: > 100 µM (inactive)
GI50 [12]: > 100 µM (inactive)
GI50 [13]: > 100 µM (inactive)
GI50 [15]: > 100 µM (inactive)
GI50 [16]: > 100 µM (inactive)
GI50 [17]: > 100 µM (inactive)
GI50 [18]: > 100 µM (inactive)
GI50 [19]: > 100 µM (inactive)
GI50 [20]: > 100 µM (inactive)
GI50 [21]: > 100 µM (inactive)
GI50 [22]: > 100 µM (inactive)
GI50 [23]: > 100 µM (inactive)
GI50 [57]: > 100 µM (inactive)
GI50 [24]: > 100 µM (inactive)
GI50 [26]: > 100 µM (inactive)
GI50 [28]: > 100 µM (inactive)
GI50 [30]: > 100 µM (inactive)
GI50 [31]: > 100 µM (inactive)
GI50 [32]: > 100 µM (inactive)
GI50 [33]: > 100 µM (inactive)
GI50 [34]: > 100 µM
GI50 [35]: > 100 µM (inactive)
GI50 [36]: > 100 µM (inactive)
GI50 [37]: > 100 µM (inactive)
GI50 [38]: > 100 µM (inactive)
GI50 [39]: > 100 µM (inactive)
GI50 [40]: > 100 µM (inactive)
GI50 [41]: > 100 µM (inactive)
GI50 [42]: > 100 µM (inactive)
GI50 [43]: > 100 µM (inactive)
GI50 [44]: > 100 µM (inactive)
GI50 [45]: 18.5 µM (inactive)
GI50 [46]: > 100 µM (inactive)
GI50 [47]: > 100 µM (inactive)
GI50 [48]: > 100 µM (inactive)
GI50 [49]: > 100 µM (inactive)
GI50 [50]: > 100 µM (inactive)
GI50 [51]: > 100 µM (inactive)
GI50 [52]: > 100 µM (inactive)
GI50 [53]: > 100 µM (inactive)
GI50 [54]: > 100 µM (inactive)
GI50 [58]: > 100 µM (inactive)
GI50 [55]: > 100 µM (inactive)
